Results: ChEMBL document CHEMBL5131495, “Discovery of unique thiazolidinone-conjugated coumarins as novel broad spectrum antibacterial agents” (Eur J Med Chem, 2022)
≈ marks a conversion by molar mass, not a printed value.

Legend:
Format in all cases: functional
Staphylococcus aureus [1] = assay: Antibacterial activity against Staphylococcus aureus assessed as inhibition of bacterial growth
Staphylococcus aureus [2] = assay: Antibacterial activity against methicillin resistant Staphylococcus aureus N315 assessed as inhibition of bacterial growth
Enterococcus faecalis = assay: Antibacterial activity against Enterococcus faecalis assessed as inhibition of bacterial growth
Staphylococcus aureus [3] = assay: Antibacterial activity against Staphylococcus aureus ATCC 25923 assessed as inhibition of bacterial growth
Staphylococcus aureus [4] = assay: Antibacterial activity against Staphylococcus aureus ATCC 29213 assessed as inhibition of bacterial growth
Klebsiella pneumoniae = assay: Antibacterial activity against Klebsiella pneumoniae assessed as inhibition of bacterial growth
Escherichia coli [5] = assay: Antibacterial activity against Escherichia coli assessed as inhibition of bacterial growth
Escherichia coli [6] = assay: Antibacterial activity against Escherichia coli ATCC 25922 assessed as inhibition of bacterial growth
Pseudomonas aeruginosa [7] = assay: Antibacterial activity against Pseudomonas aeruginosa assessed as inhibition of bacterial growth
Pseudomonas aeruginosa [8] = assay: Antibacterial activity against Pseudomonas aeruginosa ATCC 27853 assessed as inhibition of bacterial growth
Acinetobacter baumannii = assay: Antibacterial activity against Acinetobacter baumannii assessed as inhibition of bacterial growth

| SMILES | MIC (Staphylococcus aureus [1]) [µg/mL] | MIC (Staphylococcus aureus [2]) [µg/mL] | MIC (Enterococcus faecalis) [µg/mL] | MIC (Staphylococcus aureus [3]) [µg/mL] | MIC (Staphylococcus aureus [4]) [µg/mL] | MIC (Klebsiella pneumoniae) [µg/mL] | MIC (Escherichia coli [5]) [µg/mL] | MIC (Escherichia coli [6]) [µg/mL] | MIC (Pseudomonas aeruginosa [7]) [µg/mL] | MIC (Pseudomonas aeruginosa [8]) [µg/mL] | MIC (Acinetobacter baumannii) [µg/mL] |
| --- | --- | --- | --- | --- | --- | --- | --- | --- | --- | --- | --- |
| Cc1cc(=O)oc2cc(/N=C3/SCC(=O)N3CCO)ccc12 | 128 (≈ 402 µM) | 128 (≈ 402 µM) | 128 (≈ 402 µM) | 16 (≈ 50.3 µM) | 64 (≈ 201 µM) | 128 (≈ 402 µM) | 2 (≈ 6.28 µM) | 64 (≈ 201 µM) | 128 (≈ 402 µM) | 32 (≈ 101 µM) | 0.5 (≈ 1.57 µM) |
| Cc1cc(=O)oc2cc(/N=C3/S/C(=C\C4CCCCC4)C(=O)N3CCO)ccc12 | 256 (≈ 621 µM) | 256 (≈ 621 µM) | 256 (≈ 621 µM) | 256 (≈ 621 µM) | 16 (≈ 38.8 µM) | 256 (≈ 621 µM) | 256 (≈ 621 µM) | 256 (≈ 621 µM) | 256 (≈ 621 µM) | 16 (≈ 38.8 µM) | 64 (≈ 155 µM) |
| Cc1ccc(/C=C2\S/C(=N/c3ccc4c(C)cc(=O)oc4c3)N(CCO)C2=O)cc1 | 64 (≈ 152 µM) | 128 (≈ 304 µM) | 256 (≈ 609 µM) | 256 (≈ 609 µM) | 128 (≈ 304 µM) | 256 (≈ 609 µM) | 128 (≈ 304 µM) | 256 (≈ 609 µM) | 128 (≈ 304 µM) | 32 (≈ 76.1 µM) | 8 (≈ 19 µM) |
| Cc1cc(=O)oc2cc(/N=C3/S/C(=C\c4c[nH]c5cc(Cl)ccc45)C(=O)N3CCO)ccc12 | 16 (≈ 33.3 µM) | 8 (≈ 16.7 µM) | 4 (≈ 8.33 µM) | 8 (≈ 16.7 µM) | 64 (≈ 133 µM) | 8 (≈ 16.7 µM) | 8 (≈ 16.7 µM) | 16 (≈ 33.3 µM) | 128 (≈ 267 µM) | 64 (≈ 133 µM) | 4 (≈ 8.33 µM) |
| Cc1cc(=O)oc2cc(/N=C3\NC(=O)CS3)ccc12 | 32 (≈ 117 µM) | 256 (≈ 933 µM) | 256 (≈ 933 µM) | 64 (≈ 233 µM) | 256 (≈ 933 µM) | 4 (≈ 14.6 µM) | 16 (≈ 58.3 µM) | 128 (≈ 467 µM) | 64 (≈ 233 µM) | 128 (≈ 467 µM) | 256 (≈ 933 µM) |
| Cc1cc(=O)oc2cc(/N=C3/S/C(=C\c4ccccc4)C(=O)N3CCO)ccc12 | 64 (≈ 157 µM) | 64 (≈ 157 µM) | 128 (≈ 315 µM) | 128 (≈ 315 µM) | 128 (≈ 315 µM) | 256 (≈ 630 µM) | 256 (≈ 630 µM) | 256 (≈ 630 µM) | 64 (≈ 157 µM) | 64 (≈ 157 µM) | 1 (≈ 2.46 µM) |
| Cc1cc(=O)oc2cc(/N=C3/S/C(=C\c4cccc(Cl)c4)C(=O)N3CCO)ccc12 | 32 (≈ 72.6 µM) | 8 (≈ 18.1 µM) | 32 (≈ 72.6 µM) | 8 (≈ 18.1 µM) | 32 (≈ 72.6 µM) | 32 (≈ 72.6 µM) | 32 (≈ 72.6 µM) | 64 (≈ 145 µM) | 2 (≈ 4.54 µM) | 1 (≈ 2.27 µM) | 4 (≈ 9.07 µM) |
| Cc1cc(=O)oc2cc(/N=C3/S/C(=C\c4ccc(O)c(Br)c4)C(=O)N3CCO)ccc12 | 16 (≈ 31.9 µM) | 128 (≈ 255 µM) | 64 (≈ 128 µM) | 64 (≈ 128 µM) | 128 (≈ 255 µM) | 64 (≈ 128 µM) | 256 (≈ 511 µM) | 32 (≈ 63.8 µM) | 32 (≈ 63.8 µM) | 32 (≈ 63.8 µM) | 64 (≈ 128 µM) |
| Cc1cc(=O)oc2cc(/N=C3/S/C(=C\c4ncc[nH]4)C(=O)N3CCO)ccc12 | 8 (≈ 20.2 µM) | 64 (≈ 161 µM) | 64 (≈ 161 µM) | 128 (≈ 323 µM) | 32 (≈ 80.7 µM) | 16 (≈ 40.4 µM) | 32 (≈ 80.7 µM) | 64 (≈ 161 µM) | 32 (≈ 80.7 µM) | 128 (≈ 323 µM) | 16 (≈ 40.4 µM) |
| Cc1cc(=O)oc2cc(/N=C3/S/C(=C\c4ccc(C(F)(F)F)cc4)C(=O)N3CCO)ccc12 | 128 (≈ 270 µM) | 256 (≈ 540 µM) | 256 (≈ 540 µM) | 64 (≈ 135 µM) | 256 (≈ 540 µM) | 128 (≈ 270 µM) | 128 (≈ 270 µM) | 256 (≈ 540 µM) | 32 (≈ 67.4 µM) | 256 (≈ 540 µM) | 32 (≈ 67.4 µM) |
| Cc1cc(=O)oc2cc(/N=C3/S/C(=C\c4nccs4)C(=O)N3CCO)ccc12 | 16 (≈ 38.7 µM) | 64 (≈ 155 µM) | 4 (≈ 9.67 µM) | 1 (≈ 2.42 µM) | 64 (≈ 155 µM) | 2 (≈ 4.84 µM) | 128 (≈ 310 µM) | 256 (≈ 619 µM) | 128 (≈ 310 µM) | 128 (≈ 310 µM) | 1 (≈ 2.42 µM) |
| Cc1ccc(/C=C2\S/C(=N/c3ccc4c(C)cc(=O)oc4c3)N(CCO)C2=O)c(C)c1 | 64 (≈ 147 µM) | 128 (≈ 295 µM) | 128 (≈ 295 µM) | 64 (≈ 147 µM) | 64 (≈ 147 µM) | 128 (≈ 295 µM) | 64 (≈ 147 µM) | 128 (≈ 295 µM) | 16 (≈ 36.8 µM) | 256 (≈ 589 µM) | 1 (≈ 2.3 µM) |
| Cc1cc(=O)oc2cc(/N=C3/S/C(=C\c4ccc(O)c(Cl)c4)C(=O)N3CCO)ccc12 | 32 (≈ 70 µM) | 64 (≈ 140 µM) | 8 (≈ 17.5 µM) | 128 (≈ 280 µM) | 256 (≈ 560 µM) | 32 (≈ 70 µM) | 16 (≈ 35 µM) | 32 (≈ 70 µM) | 32 (≈ 70 µM) | 4 (≈ 8.75 µM) | 16 (≈ 35 µM) |
| Cc1cc(=O)oc2cc(/N=C3/S/C(=C\c4ccc([N+](=O)[O-])cc4)C(=O)N3CCO)ccc12 | 64 (≈ 142 µM) | 32 (≈ 70.9 µM) | 32 (≈ 70.9 µM) | 128 (≈ 284 µM) | 64 (≈ 142 µM) | 64 (≈ 142 µM) | 128 (≈ 284 µM) | 64 (≈ 142 µM) | 64 (≈ 142 µM) | 128 (≈ 284 µM) | 32 (≈ 70.9 µM) |
| Cc1cc(=O)oc2cc(/N=C3/S/C(=C\c4csc5ccccc45)C(=O)N3CCO)ccc12 | 128 (≈ 277 µM) | 128 (≈ 277 µM) | 64 (≈ 138 µM) | 256 (≈ 553 µM) | 128 (≈ 277 µM) | 32 (≈ 69.2 µM) | 128 (≈ 277 µM) | 64 (≈ 138 µM) | 128 (≈ 277 µM) | 64 (≈ 138 µM) | 8 (≈ 17.3 µM) |
| CCn1cc(C(=O)O)c(=O)c2cc(F)c(N3CCNCC3)cc21 [NORFLOXACIN] | 2 (≈ 6.26 µM) | 4 (≈ 12.5 µM) | 4 (≈ 12.5 µM) | 4 (≈ 12.5 µM) | 2 (≈ 6.26 µM) | 4 (≈ 12.5 µM) | 2 (≈ 6.26 µM) | 4 (≈ 12.5 µM) | 1 (≈ 3.13 µM) | 4 (≈ 12.5 µM) | 4 (≈ 12.5 µM) |
| Cc1ccc(/C=C2\S/C(=N/c3ccc4c(C)cc(=O)oc4c3)N(CCO)C2=O)o1 | 128 (≈ 312 µM) | 8 (≈ 19.5 µM) | 64 (≈ 156 µM) | 256 (≈ 624 µM) | 128 (≈ 312 µM) | 32 (≈ 78 µM) | 16 (≈ 39 µM) | 64 (≈ 156 µM) | 16 (≈ 39 µM) | 16 (≈ 39 µM) | 8 (≈ 19.5 µM) |
| Cc1cc(=O)oc2cc(/N=C3/S/C(=C\c4ccc(F)cc4F)C(=O)N3CCO)ccc12 | 32 (≈ 72.3 µM) | 64 (≈ 145 µM) | 2 (≈ 4.52 µM) | 4 (≈ 9.04 µM) | 32 (≈ 72.3 µM) | 64 (≈ 145 µM) | 64 (≈ 145 µM) | 128 (≈ 289 µM) | 64 (≈ 145 µM) | 32 (≈ 72.3 µM) | 64 (≈ 145 µM) |
| Cc1cc(=O)oc2cc(/N=C3/S/C(=C\c4cccs4)C(=O)N3CCO)ccc12 | 4 (≈ 9.7 µM) | 128 (≈ 310 µM) | 4 (≈ 9.7 µM) | 32 (≈ 77.6 µM) | 1 (≈ 2.42 µM) | 64 (≈ 155 µM) | 32 (≈ 77.6 µM) | 32 (≈ 77.6 µM) | 16 (≈ 38.8 µM) | 1 (≈ 2.42 µM) | 1 (≈ 2.42 µM) |
